The text below walks through data of a melting point compilation (Tetko et al.; mined from patent text by program, amines drawn as free bases though some values may be those of a salt).

As a reminder, the melting point is the temperature of the solid-liquid transition.

The structures appear in SMILES notation.

With `OCC1OC(n2c(Cl)c(-c3ccsc3)c3cc(Cl)c(Cl)cc32)CC1O` (configuration not stated), the melting point was 144 to 145 °C.

As to `CCCC1Nc2ccc(S(=O)(=O)N3CCCCC3)cc2S(=O)(=O)N1` (configuration not stated), the melting point fell in the range of 147 to 151 °C. The figure for `CC(C)(C)c1cc(SC(Sc2cc(C(C)(C)C)c(O)c(C(C)(C)C)c2)C2CC=CCC2)cc(C(C)(C)C)c1O` (configuration not stated) is 122 to 125 °C.

Compound `CC(C)[C@@H]1CC[C@@H](C)C[C@H]1OC(=O)N1C(=O)O[C@@H](C(F)(F)F)[C@@H]1C(C)C` returned a melting point of 80 to 82 °C. The result for `COC(=O)c1ccc(OC(=O)CCCCCCCCC(=O)Oc2ccc(C(=O)OC)cc2)cc1` reads 110 °C; that for `CN1C(=O)CCN(c2ccc(Cl)cc2Cl)C1=O`, 154 to 157 °C; that for `O=C(Nc1ccc(-n2nc(C(F)(F)F)cc2OC(F)F)cc1)c1ccccc1Cl`, 122 to 123 °C. The result for `CCOC(=O)C1=C(C)Nc2nc(N3CCOCC3)nc(N3CCOCC3)c2C1c1ccccc1OC` (configuration not stated) reads 188 °C.

Compound `CCOC(=O)c1cnc2sc(CN3CCOCC3)c(C)c2c1O` registered a melting point of 182 to 185 °C.

`COc1nc(N)c(Cl)cc1C(=O)CCC1CCN(CC(O)C(C)(C)C)CC1` (configuration not stated) had a melting point of 134 °C. The result for `Cc1ccc(C(=O)Nc2nc(-c3ccccc3)c(-c3nc4ccccc4c(=O)n3-c3ccccc3C)s2)cc1` reads greater than 275 °C; that for `CC(Cn1ccnn1)n1nnc2cc3c(=O)n(C(C)Cn4ccnn4)nnc3cc2c1=O` (configuration not stated), 192 to 195 °C.

`CC1(C)CCC(C)(C)c2cc(C(C(N)=O)C(=O)OCc3ccccc3)ccc21` (configuration not stated) came in with a melting point of 112 to 113 °C. The result for `CCOc1cc(CBr)ccc1C(=O)O` reads 64 to 66 °C; that for `CCc1ccc(CSc2nc(C)cc(=O)[nH]2)nc1`, 127 to 128 °C; that for `CCOC(=O)C(=[N+]=[N-])C(=O)c1cc(OC)ccc1C1CCc2cc(OC)ccc21` (configuration not stated), 97 to 99 °C. The result for `C=CCOCc1ccc(-c2ncccc2S(=O)(=O)Nc2ncc(C)nc2OC)cc1` reads 72 to 76 °C; that for `CC(=O)Nc1ccc(S(=O)(=O)O)c(NCC(=O)O)c1`, 234 to 235 °C. The figure for `COC(=O)c1c(Sc2ccc(OC)cc2)nc(C)n1Cc1cc2c(cc1Cl)OCO2` is 152 °C; for `COc1ccc(N2C=CN(CCC(C)(C)NCC(O)c3ccc(OCc4ccccc4)c(CO)c3)C2)cc1` (configuration not stated) it is 108 to 111 °C; for `CCOCc1nc2cnc3cc(Br)ccc3c2n1CC1CCN(C(=O)OC(C)(C)C)CC1` it is 169 to 170 °C. For `O=C1Nc2cccnc2N(C(=O)NCCN2CCCC(CN3CCCCCC3)C2)c2ccccc21` (configuration not stated), the melting point was 135 to 137 °C. The result for `O=C(Cc1ccccc1)NC1C(=O)N2C1SC1(CCN(Cc3ccccc3)CC1)C2C(=O)OCc1ccccc1` (configuration not stated) reads 130 to 131 °C; that for `O=C1CC2(C(=O)N1)C(=O)N1c3ccccc3Sc3cccc2c31` (configuration not stated), greater than 300 °C; that for `COc1cc(OC(C)(C)C(=O)O)c(C=O)cc1-c1cccs1`, 187 to 188 °C. In the case of `N[C@@H](Cc1ccccc1)C(=O)N1CCN(C(c2ccc(F)cc2)c2ccc(F)cc2)CC1`, the melting point lay in the range of 44 to 51 °C.

In turn, `CC(C)NC(=O)N1CCc2cc(S(=O)(=O)n3cc(-c4ccccc4)[nH]c3=O)ccc21` yielded a melting point of 214 to 216 °C. In turn, `CCOC(=O)c1c(C(F)(F)F)nc(C(F)(F)F)c(C(=O)OCC)c1N` gave a melting point of 52 to 58 °C. Regarding `Cc1cn(-c2cccc(C(=O)CC(=O)Nc3cc(-c4ccc(F)cc4)ccc3NC(=O)OC(C)(C)C)c2)cn1`, the melting point turned out to be 124 °C. Turning to `O=C(NC1CCCc2ccccc21)c1ccc([N+](=O)[O-])cc1` (configuration not stated), the melting point lay in the range of 156 to 157 °C.

`O=c1cc(N2CCOCC2)oc2ccc(Cl)cc12`: the melting point was in the range of 194 to 195 °C. The compound `NS(=O)(=O)c1cc(C(=O)O)cc(S(=O)(=O)Cc2ccccc2)c1Cl` showed a melting point of 236 to 237 °C. Take `COc1cc2c(cc1OC)CN(CCCOc1ccc(NC(=O)c3cccc4c(=O)c5ccccc5[nH]c34)cc1)CC2`: the melting point turned out to be 220 °C.

In turn, `CCN(C(=O)N1CCN(c2cc(C)cc(C)c2)CC1)c1cc(C)c(C)cc1OC` gave a melting point of 80 to 82 °C. The result for `COc1ccccc1CN1CCc2cc(O)ccc2C1` reads 148 to 155 °C; that for `O=C1c2ccccc2C(=O)c2[nH]c(-c3ccccc3)nc21`, greater than 260 °C; that for `CCCCCC(O)CCc1ccc(CCCCCCCC(=O)O)o1` (configuration not stated), 43 to 45 °C. As for `O=c1c(-c2ccccc2O)coc2cc(O)ccc12`, the melting point lay in the range of 196 to 198 °C. The figure for `CC(=O)c1ccc2ccccc2c1OC(F)F` is 80 to 81 °C; for `NC(=NCCCc1c[nH]cn1)N(CCN(Cc1ccc(Cl)cc1)c1ccccn1)C(=O)c1ccccc1` it is 166 to 167 °C; for `CCCCOc1cc(CCS(=O)(=O)NC(=O)OCC(C)(C)C)n(Cc2ccc(Cl)cc2Cl)n1` it is 116 to 118 °C. With `COC(CNC(=O)C=CC(=O)O)OC`, the melting point is 91 to 92 °C. The compound `CCCc1ccc(-n2nc(Cl)cc2-c2ccc(S(C)(=O)=O)cc2)cc1N` had a melting point of 152 to 154 °C. As to `O=C(NCC(=O)c1cccs1)c1ccccc1`, the melting point lay within 146 to 147 °C.

Consider `Cc1ccc(-c2cn(C)cc(-c3ccccc3)c2=O)cc1C`, for which the melting point is 108 to 111 °C. The compound `CCN(CC)c1ccc(C=C2CCCC(=Cc3ccc(N(CC)CC)cc3)C2=O)cc1` showed a melting point of 167 °C. As for `CN(O)C(=O)NCCc1ccc2c(c1)OCCO2`, the melting point was 94 to 95 °C. `O=[N+]([O-])c1cc(C(F)(F)F)ccc1S(=O)(=O)NCC(O)(Cn1cncn1)c1ccc(Cl)cc1Cl` (configuration not stated) yielded a melting point of 97 to 105 °C.

For the compound `O=C(O)C1c2ccccc2COc2ccc(Br)cc21` (configuration not stated), the melting point was 166 to 167 °C. Compound `CC(=O)c1cc(Nc2cc(C)nc(N)n2)cc(C(C)=O)c1` returned a melting point of 240 to 241 °C. The figure for `CC1CCC(C(C)C)C(C(=O)NC(C)(C)C)C1` (configuration not stated) is 145 to 146 °C; for `O=c1[nH]nccc1NCCCNCCOc1cccc2c1OCCO2` it is 118 to 120 °C; for `CCCCNC(=O)Oc1ccc(N=C=S)cc1` it is 99 to 102 °C. The figure for `CCOC(=O)NNc1ccc(-c2ccccc2)nn1` is 158 to 160 °C. The result for `CCOC(=O)c1cn(-c2cnccn2)cn1` reads 128 to 129 °C; that for `Cc1c(F)c(F)cc(C(=O)O)c1F`, 101 to 102 °C; that for `CN(CCO)C(=O)Cc1ccccc1Cl`, 77 °C. `COC(=O)c1ccn2cc(C)nc2c1` came in with a melting point of 149 °C.

On to `Cc1ccc2c(c1)c1c(n2CCBr)C(=O)CCC1`, for which the melting point lay within 102 to 103 °C. As for `CN(C)C/C=C/C(=O)N1CCOc2cc3ncc(C#N)c(Nc4ccc(F)c(Cl)c4)c3cc21`, the melting point was in the range of 199 to 200 °C. `Cc1cc(C(=O)C2=NOC(c3cc(Cl)cc(Cl)c3)(C(F)(F)F)C2)ccc1S(=O)(=O)NCc1ccccn1` (configuration not stated) had a melting point of 57 to 58 °C. The figure for `CC(NC(=O)N(Cc1csc(C(C)C)n1)C1CC1)C(=O)NC(Cc1ccccc1)CC(O)C(Cc1ccccc1)NC(=O)OCc1cncs1` (configuration not stated) is 65 to 67 °C.

As for `CCc1ccc(C=C2CCCN(c3nc(C)c(C(=O)NCc4ccccc4)s3)C2=O)s1`, the melting point was in the range of 171 to 172 °C. The result for `OCCn1cc(Br)c(Br)n1` reads 64 to 66 °C; that for `CC(C)(C)OC(=O)N1CCC2(CC1)Cn1cc([N+](=O)[O-])nc1O2`, 230 to 232 °C; that for `COc1ccc2c(cc3n2Cc2ccccc2-3)n1`, 192 to 193 °C.

Compound `COc1cncnc1N1CCN(CCCc2c[nH]c3ccc(CN(C)S(C)(=O)=O)cc23)CC1` yielded a melting point of 164 to 165 °C. The result for `C=CCOc1ccc(OCC)c2c1S(=O)(=O)N(Cc1ccccc1)C2=O` reads 148 to 149 °C; that for `CCC(=O)Nc1ccccc1-c1nc2ccccc2[nH]1`, greater than 200 °C; that for `COc1cc(OC)nc(NC(=O)NS(=O)(=O)c2ccccc2OS(=O)(=O)N(C)C)n1`, 165 to 168 °C. The figure for `O=c1[nH]c2c(Cl)sc(Cl)c2c(=O)c2cscc12` is 236 to 239 °C. `CC(C)(C)C(=O)c1ccc(C(=O)NC(=O)c2ccccc2)cc1` gave a melting point of 121 to 123 °C. Compound `Cc1oncc1C(=O)N1CCC[C@H](c2nc(-c3ccc[nH]3)no2)C1` had a melting point of 125 to 127 °C.

The compound `COc1ccc(C=CC(=O)NO)cc1OC` came in with a melting point of 183 to 185 °C.

As to `CCOC(=O)CN1C(=O)[C@H](NC(=O)[C@H](COCc2ccccc2)NC(=O)OC(C)(C)C)CSc2ccccc21`, the melting point fell in the range of 52 to 54 °C.

For the compound `Cc1cc(Br)cc(C)c1N[N+](=O)[O-]`, the melting point fell in the range of 129 to 131 °C. `COCCOc1cccc(-c2cncc(C#N)c2Nc2ccc3[nH]ccc3c2C)c1` yielded a melting point of 158 to 160 °C.

In turn, `C=C(C)C(C)n1c(=O)c(C(C)C)cc2c3c(cc(C)c21)C(C)C(C)(CI)O3` (configuration not stated) gave a melting point of 191 to 192 °C. The compound `CCOC(=O)N1CCN(c2nc(C)nc3c2OCC(=O)N3CC(O)CO)CC1` (configuration not stated) came in with a melting point of 146 to 148 °C. The result for `Cn1c(CCN2CCN(Cc3ccccc3)CC2)nc2cc(Br)c3ccccc3c21` reads 155 to 157 °C. The figure for `COC(=O)c1cncs1` is 68 °C; for `COP(=O)(NC1C(=O)N2C(C(=O)OCc3ccc([N+](=O)[O-])cc3)=C(C=CN3CCCCC3)CSC12)OC` (configuration not stated) it is 220 to 221 °C; for `CCN(c1nc(C)cc(C)n1)c1ccc(CC=NOC)cc1S(C)(=O)=O` it is 151 to 154 °C. For `O=C(O)c1cn(CCO)c2c(F)c(N3CCn4ccnc4C3)c(F)cc2c1=O`, the melting point was 253 to 255 °C. The compound `C=CCc1c(O)c2cccnc2n(-c2ccccc2)c1=O` registered a melting point of 248 to 250 °C. The figure for `COc1nc(N)nc(OC(F)(F)F)n1` is 69 to 91 °C; for `O=C(O)Cn1cc(Cc2nc3cc(C(F)(F)F)ccc3s2)c2ccc(Br)cc21` it is 265 to 267 °C.
